# Target: T1, SIRT1 (Homo sapiens, UniProt Q96EB6)
# T1 sequence (Q96EB6 1-747): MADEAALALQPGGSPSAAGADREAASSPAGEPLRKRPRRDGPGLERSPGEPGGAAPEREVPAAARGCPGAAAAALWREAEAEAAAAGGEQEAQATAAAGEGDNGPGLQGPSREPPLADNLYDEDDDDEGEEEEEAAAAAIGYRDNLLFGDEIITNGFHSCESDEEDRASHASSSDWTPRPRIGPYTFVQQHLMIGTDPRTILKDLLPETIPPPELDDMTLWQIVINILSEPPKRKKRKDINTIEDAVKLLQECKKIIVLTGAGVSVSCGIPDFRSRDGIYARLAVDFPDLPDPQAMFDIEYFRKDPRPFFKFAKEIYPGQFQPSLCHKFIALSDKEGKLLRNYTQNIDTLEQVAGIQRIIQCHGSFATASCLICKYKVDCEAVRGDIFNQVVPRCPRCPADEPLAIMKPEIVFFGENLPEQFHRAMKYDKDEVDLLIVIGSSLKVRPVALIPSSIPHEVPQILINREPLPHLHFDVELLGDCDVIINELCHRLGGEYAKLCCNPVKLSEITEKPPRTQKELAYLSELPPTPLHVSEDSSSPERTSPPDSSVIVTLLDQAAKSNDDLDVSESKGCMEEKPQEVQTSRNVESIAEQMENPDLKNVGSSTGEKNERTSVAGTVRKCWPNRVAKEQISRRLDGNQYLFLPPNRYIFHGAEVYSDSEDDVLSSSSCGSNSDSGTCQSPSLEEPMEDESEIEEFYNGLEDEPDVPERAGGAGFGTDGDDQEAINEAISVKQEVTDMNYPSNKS
# Test: Mass spectrometry based SIRT1 deacetylation assay (activation)
# Assay type: biochemical
# Details: 10 nM SIRT1, 0.5 μM peptide substrate, 120 μM βNAD+, 25 min at 25° C.
# In short: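 Recombinant N-His-tagged SIRT1 (E. coli BL21(DE3)), 10 nM, incubated 25 min at 25 °C with 0.5 μM biotin/5TMR-labelled acetyl-p53-derived 20-mer peptide and 120 μM βNAD+ in Tris-acetate pH 8 buffer with DTT and BSA. Formic acid stop; MS quantifies acetylated vs deacetylated peptide. EC1.5 = concentration giving 150% activation versus DMSO.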
SMILES,% Fold Act. (percent maximum fold activation),EC1.5 (concentration of test compound that results in 150% activation of SIRT1)
O=C(Nc1ccncn1)c1cccc2ncc(-c3cccc(C(F)(F)F)c3)nc12 [Compound 130],B (Fold Activation <200%),A (EC1.5<1.0 uM)
FC(F)(F)Oc1cccc(-c2ccc3cccc(NCc4nccs4)c3n2)c1 [Compound 140],–,C (EC1.5>25 uM)
c1cncc(CNc2cccc3ccc(-c4cccnc4)nc23)c1 [Compound 145],–,C (EC1.5>25 uM)
O=C(NCc1ccncc1)c1cccc2ccc(-c3cccc(C(F)(F)F)c3)nc12 [Compound 37],B (Fold Activation <200%),B (EC1.5 1-25 uM)
O=C(Nc1cccc2ccc(-c3cccc(OC(F)(F)F)c3)nc12)c1cccc(F)c1 [Compound 21],–,C (EC1.5>25 uM)
O=C(Nc1cccnc1)c1cccc2cnc(-c3cccnc3)nc12 [Compound 297],–,C (EC1.5>25 uM)
O=C(Nc1cccnc1)c1cccc2ccc(-c3cccnc3)nc12 [Compound 183],–,C (EC1.5>25 uM)
O=C(Nc1ccccn1)c1cccc2ccc(-c3cccc(OC(F)(F)F)c3)nc12 [Compound 24],A (Fold activation >200%),A (EC1.5<1.0 uM)
O=C(Nc1cccc2ccc(-c3cccc(C(F)(F)F)c3)nc12)c1cccc(OC[C@@H](O)CO)n1 [Compound 203],A (Fold activation >200%),A (EC1.5<1.0 uM)
O=C(Nc1ccc(Cl)nc1)c1cccc2ccc(-c3cccc(C(F)(F)F)c3)nc12 [Compound 58],B (Fold Activation <200%),A (EC1.5<1.0 uM)
O=C(Nc1nccs1)c1ccc(F)c2ccc(-c3cccc(C(F)(F)F)c3)nc12 [Compound 66],–,C (EC1.5>25 uM)
O=C(Nc1ccc(OCC(O)CO)cc1)c1cccc2ccc(-c3cccc(C(F)(F)F)c3)nc12 (stereo not shown) [Compound 149],A (Fold activation >200%),A (EC1.5<1.0 uM)
Cc1cc(NC(=O)c2cccc3ccc(-c4cccc(C(F)(F)F)c4)nc23)sn1 [Compound 59],A (Fold activation >200%),A (EC1.5<1.0 uM)
O=C(Nc1cnccn1)c1cccc2ccc(-c3cccc(N4CCOCC4)c3)nc12 [Compound 279],A (Fold activation >200%),A (EC1.5<1.0 uM)
O=C(Nc1ncc(CN2CCOCC2)s1)c1cccc2ccc(-c3cccc(C(F)(F)F)c3)nc12 [Compound 188],A (Fold activation >200%),A (EC1.5<1.0 uM)
O=C(Nc1nccs1)c1cccc2ncc(-c3cccc(OC(F)(F)F)c3)nc12 [Compound 125],–,C (EC1.5>25 uM)
O=C(Nc1ccc(Cl)cn1)c1cccc2ccc(-c3cccc(N4CCOCC4)c3)nc12 [Compound 278],A (Fold activation >200%),A (EC1.5<1.0 uM)
O=C(Nc1cccc2ccc(-c3cc(F)cc(C(F)(F)F)c3)nc12)c1cnccn1 [Compound 156],–,C (EC1.5>25 uM)
O=C(NC1CCCC1)c1cccc2ccc(-c3cccc(OC4CCNCC4)c3)nc12 [Compound 94],A (Fold activation >200%),B (EC1.5 1-25 uM)
O=C(Nc1cccnc1)Nc1cccc2ccc(-c3cccc(OC(F)(F)F)c3)nc12 [Compound 47],A (Fold activation >200%),A (EC1.5<1.0 uM)
O=C(Nc1ncnc2ccc(-c3cccc(OC(F)(F)F)c3)nc12)c1cccnc1 [Compound 210],A (Fold activation >200%),B (EC1.5 1-25 uM)
Cc1cc(-c2ccc3cccc(C(=O)Nc4ccncn4)c3n2)no1 [Compound 70],–,C (EC1.5>25 uM)

SMILES,% Fold Act. (percent maximum fold activation),EC1.5 (concentration of test compound that results in 150% activation of SIRT1)
O=C(Nc1ccncc1)c1cccc2ccc(-c3cccc(OC(F)(F)F)c3)nc12 [Compound 26],A (Fold activation >200%),B (EC1.5 1-25 uM)
Cc1cncc(-c2ccc3cccc(C(=O)Nc4nccs4)c3n2)c1 [Compound 242],–,C (EC1.5>25 uM)
O=C(Nc1cccc(CN2CCOCC2)c1)c1cccc2ccc(-c3cccc(C(F)(F)F)c3)nc12 [Compound 255],A (Fold activation >200%),A (EC1.5<1.0 uM)
O=C(NCc1cccnc1)c1cccc2ccc(-c3cccc(C(F)(F)F)c3)nc12 [Compound 36],A (Fold activation >200%),C (EC1.5>25 uM)
O=C(Nc1cccc2ccc(-c3cccc(C(F)(F)F)c3)nc12)c1cccc(OC[C@@H](O)CO)c1 [Compound 187],A (Fold activation >200%),A (EC1.5<1.0 uM)
Cc1cnc(NC(=O)c2cccc3ccc(-c4ccnc(C(F)F)c4)nc23)s1 [Compound 307],–,C (EC1.5>25 uM)
O=C(Nc1ccccn1)c1cccc2cnc(-c3cccc(C(F)(F)F)c3)nc12 [Compound 283],–,C (EC1.5>25 uM)
Cc1cc(NC(=O)c2cccc3ccc(-c4cccc(C(F)(F)F)c4)nc23)no1 [Compound 73],B (Fold Activation <200%),B (EC1.5 1-25 uM)
O=C(Nc1ccccn1)c1cccc2ccc(-c3cccnc3)nc12 [Compound 182],B (Fold Activation <200%),A (EC1.5<1.0 uM)
Fc1cc(-c2ccc3cccc(NCc4cccnc4)c3n2)cc(C(F)(F)F)c1 [Compound 168],–,C (EC1.5>25 uM)
O=C(Nc1nncs1)c1cccc2ccc(-c3cccc(N4CCOCC4)c3)nc12 [Compound 251],A (Fold activation >200%),A (EC1.5<1.0 uM)
O=C(Nc1cccnc1)c1cccc2ccc(-c3ccc(C(F)(F)F)cc3)nc12 [Compound 98],–,C (EC1.5>25 uM)
O=C(Nc1ncnc2ccc(-c3cccc(C(F)(F)F)c3)nc12)c1cccnc1 [Compound 311],A (Fold activation >200%),B (EC1.5 1-25 uM)
O=C(Nc1cccc2ccc(-c3cccc(CN4CCNCC4)c3)nc12)c1cscn1 [Compound 121],A (Fold activation >200%),A (EC1.5<1.0 uM)
O=C(Nc1cc[nH]n1)c1cccc2ccc(-c3cccc(C(F)(F)F)c3)nc12 [Compound 34],A (Fold activation >200%),B (EC1.5 1-25 uM)
O=C(Nc1cccnc1)c1cc(F)cc2ccc(-c3cccc(C(F)(F)F)c3)nc12 [Compound 63],–,C (EC1.5>25 uM)
O=C(Nc1cccnc1)c1ccc(F)c2ccc(-c3cccc(C(F)(F)F)c3)nc12 [Compound 67],A (Fold activation >200%),A (EC1.5<1.0 uM)
O=C(Nc1cccc2ccc(-c3cccc(CN4CCOCC4)c3)nc12)c1cscn1 [Compound 120],A (Fold activation >200%),A (EC1.5<1.0 uM)
CC(C)(C)c1nnc(NC(=O)c2cccc3ccc(-c4cccc(C(F)(F)F)c4)nc23)s1 [Compound 44],B (Fold Activation <200%),A (EC1.5<1.0 uM)
Cc1cc(NC(=O)c2cccc3ccc(-c4cccc(C(F)(F)F)c4)nc23)n(C)n1 [Compound 51],A (Fold activation >200%),B (EC1.5 1-25 uM)
FC(F)(F)c1cccc(-c2ccc3cccc(CNc4cccnc4)c3n2)c1 [Compound 105],–,C (EC1.5>25 uM)

# Source: patent US8685970B2, “Quinolines and related analogs as sirtuin modulators” (GlaxoSmithKline, LLC, priority 2008, dated 2014)
